According to patent publication US9550747B2, “Dapagliflozin crystalline form and preparation method thereof” (Jiangsu Hansoh Pharmaceutical Group Co., Ltd., priority 2014, dated 2017):
Like-named read-outs stand apart in the source and are kept apart here.

Key:
[1] = 30° C.±2° C./RH 65%±5%
Experimental: (§1) The crystal resulting from Example 1 was placed under acceleration conditions for 6 months.
Conditions: 30° C.±2° C./RH 65%±5%
(§2) Package: Two layers of low density polyethylene bag for medicinal use were sealed by hot-melt respectively, and desiccant was added. The bag was sealed and packaged with a pharmaceutical composite film bag of polyester/aluminum/polyamide/cast polypropylene.

[2] = 21° C.±2° C./RH 45%±5%
Experimental: as §1
Conditions: 21° C.±2° C./RH 45%±5%
as §2

[3] = not given; remark: listed apart in the source

CCOc1ccc(Cc2cc([C@@H]3O[C@H](CO)[C@@H](O)[C@H](O)[C@H]3O)ccc2Cl)cc1 [Example 1, 2-chloro-5-(β-D-glucopyranosyl-1-yl)-4′-ethoxy-diphenylmethane]
HPLC Identification ([1]; 1 Month): accordance | Moisture Content (%) ([1]; 1 Month): 0.82% | Related Substances Maximum Single Impurity (%) ([1]; 1 Month): 0.03% | Related Substances Total Impurity (%) ([1]; 1 Month): 0.10% | Specific Rotation ([1]; 1 Month): +13.2° | Total Content (%) ([1]; 1 Month): 99.6% | XRPD ([1]; 1 Month): accordance | HPLC Identification ([1]; 2 Months): accordance | Moisture Content (%) ([1]; 2 Months): 0.81% | Related Substances Maximum Single Impurity (%) ([1]; 2 Months): 0.03% | Related Substances Total Impurity (%) ([1]; 2 Months): 0.11% | Specific Rotation ([1]; 2 Months): +13.0° | Total Content (%) ([1]; 2 Months): 99.7% | XRPD ([1]; 2 Months): accordance | HPLC Identification ([1]; 3 Months): accordance | Moisture Content (%) ([1]; 3 Months): 0.77% | Related Substances Maximum Single Impurity (%) ([1]; 3 Months): 0.03% | Related Substances Total Impurity (%) ([1]; 3 Months): 0.10% | Specific Rotation ([1]; 3 Months): +13.4° | Total Content (%) ([1]; 3 Months): 99.3% | XRPD ([1]; 3 Months): accordance | HPLC Identification ([1]; 6 Months): accordance | Moisture Content (%) ([1]; 6 Months): 0.81% | Related Substances Maximum Single Impurity (%) ([1]; 6 Months): 0.03% | Related Substances Total Impurity (%) ([1]; 6 Months): 0.13% | Specific Rotation ([1]; 6 Months): +13.3° | Total Content (%) ([1]; 6 Months): 99.5% | XRPD ([1]; 6 Months): accordance | quality indicators of the sample ([1]; 6 Months): did not change significantly | HPLC Identification ([1]; time 0): accordance | Moisture Content (%) ([1]; time 0): 0.76% | Related Substances Maximum Single Impurity (%) ([1]; time 0): 0.04% | Related Substances Total Impurity (%) ([1]; time 0): 0.11% | Specific Rotation ([1]; time 0): +13.3° | Total Content (%) ([1]; time 0): 99.4% | XRPD ([1]; time 0): accordance | HPLC Identification ([2]; 3 Months): accordance | Moisture Content (%) ([2]; 3 Months): 0.77% | Related Substances Maximum Single Impurity (%) ([2]; 3 Months): 0.03% | Related Substances Total Impurity (%) ([2]; 3 Months): 0.11% | Specific Rotation ([2]; 3 Months): +13.1° | Total Content (%) ([2]; 3 Months): 99.8% | XRPD ([2]; 3 Months): accordance | HPLC Identification ([2]; 6 Months): accordance | Moisture Content (%) ([2]; 6 Months): 0.80% | Related Substances Maximum Single Impurity (%) ([2]; 6 Months): 0.03% | Related Substances Total Impurity (%) ([2]; 6 Months): 0.13% | Specific Rotation ([2]; 6 Months): +12.9° | Total Content (%) ([2]; 6 Months): 99.5% | XRPD ([2]; 6 Months): accordance | quality indicators of the sample ([2]; 6 Months): did not change significantly | HPLC Identification ([2]; time 0): accordance | Moisture Content (%) ([2]; time 0): 0.76% | Related Substances Maximum Single Impurity (%) ([2]; time 0): 0.04% | Related Substances Total Impurity (%) ([2]; time 0): 0.11% | Specific Rotation ([2]; time 0): +13.3° | Total Content (%) ([2]; time 0): 99.4% | XRPD ([2]; time 0): accordance | hygroscope (High humidity test 25° C./RH 75%, day 5): 4.83% | hygroscope (High humidity test 25° C./RH 75%, day 10): 4.84% | hygroscope (High humidity test 25° C./RH 95%, day 5): 6.09% | hygroscope (High humidity test 25° C./RH 95%, day 10): 6.71%

CCOc1ccc(Cc2cc([C@@H]3O[C@H](CO)[C@@H](O)[C@H](O)[C@H]3O)ccc2Cl)cc1 [crystal of the present invention, 2-chloro-5-(β-D-glucopyranosyl-1-yl)-4′-ethoxy-diphenylmethane]
transformation of the crystal (XRPD) ([3]; after grinding): does not result in transformation | transformation of the crystal (XRPD) ([3]; after pressing into a tablet, FIG. 2): no transformation
